Reference: ChEMBL document CHEMBL5614434, “A Lysosome-Targeting hNEU1 Inhibitor Treats Myocardial Infarction: A Potential Therapeutic Breakthrough” (J Med Chem, 2024)
Calls of active or inactive are those of the source. No cut-off for these calls is given here.

Assays:
H9c2 [1] = assay: Downregulation of mTORC1 level in isoproterenol-induced rat H9c2 cells by Western blot analysis; assay type: functional, cell-based; details: dose 0.01-1 µM
[2] = Metabolic stability in mouse liver microsomes assessed as parent compound remaining measured after 30 mins in presence of NADPH regenerating system by LC-MS/MS analysis; assay type: ADME, Microsome; details: read-out: Stability
H9c2 [3] = assay: Cytotoxicity against rat H9c2 cells assessed as cell viability at 0.001 to 50 uM under normoxia condition by CCK-8 method; assay type: toxicity, cell-based; details: h9c2, 50 µM, dose 0.001-50 µM
H9c2 [4] = assay: Induction of ATP production in isoproterenol-induced rat H9c2 cells at 0.1 micromol/L by fluorescence based analysis; assay type: functional; details: dose 0.1 µmol/L
Mus musculus [5] = assay: Cardioprotective activity against isoproterenol-induced myocardial injury in C57/6J mouse model assessed as reduction in neutrophil ratio at 15 mg/kg, ip pretreated with isoproterenol for 3 days followed by compound addition and measured after 3 days; assay type: functional, organism-based; details: time 3.0 day
H9c2 [6] = assay: Induction of autophagy in isoproterenol-induced rat H9c2 cells assessed as downregulation of PARP1 expression by Western blot analysis; assay type: functional, cell-based
Mus musculus [7] = assay: Cardioprotective activity against isoproterenol-induced myocardial injury in C57/6J mouse model assessed as inhibition of collagen fiber proliferation at 15 mg/kg, ip pretreated with isoproterenol for 3 days followed by compound addition and measured after 3 days by masson staining based analysis; assay type: functional, organism-based; details: time 3.0 day
[8] = Metabolic stability in mouse liver microsomes assessed as parent compound remaining measured after 45 mins in absence of NADPH regenerating system by LC-MS/MS analysis; assay type: ADME, Microsome; details: read-out: Stability
[9] = Tmax in male C57/6J mouse at 15 mg/kg, ip measured upto 24 hrs by LC-MS/MS analysis; assay type: ADME, organism-based; details: in vivo
Mus musculus [10] = assay: Cardioprotective activity against isoproterenol-induced myocardial injury in C57/6J mouse model assessed as reduction in eosinophil ratio at 15 mg/kg, ip pretreated with isoproterenol for 3 days followed by compound addition and measured after 3 days; assay type: functional, organism-based; details: time 3.0 day
[11] = Metabolic stability in mouse liver microsomes assessed as clearance measured upto 60 mins in presence of NADPH regenerating system by LC-MS/MS analysis; assay type: ADME, Microsome; details: read-out: CLH
Mus musculus [12] = assay: Cardioprotective activity against isoproterenol-induced myocardial injury in C57/6J mouse model assessed as decrease in heart weight ratio at 15 mg/kg, ip pretreated with isoproterenol for 3 days followed by compound addition and measured after 3 days (reference value: 0.56 %); assay type: functional; set-up: scale not given: the % may be the effect or the level left; details: time 3 day
Mus musculus [13] = assay: Cardioprotective activity against isoproterenol-induced myocardial injury in C57/6J mouse model assessed as reduction in neutrophil count at 15 mg/kg, ip pretreated with isoproterenol for 3 days followed by compound addition and measured after 3 days; assay type: functional, organism-based; details: time 3.0 day
[14] = Cmax in male C57/6J mouse at 15 mg/kg, ip measured upto 24 hrs by LC-MS/MS analysis; assay type: ADME, organism-based; details: in vivo
[15] = Metabolic stability in mouse liver microsomes assessed as parent compound remaining measured after 0.5 mins in presence of NADPH regenerating system by LC-MS/MS analysis; assay type: ADME, Microsome; details: read-out: Stability
[16] = Permeability of compound in MDCK cells; assay type: ADME, cell-based, Canis lupus familiaris; details: dog, read-out: permeability
Mus musculus [17] = assay: Cardioprotective activity against isoproterenol-induced myocardial injury in C57/6J mouse model assessed as appearance of clear cell boundaries in heart at 15 mg/kg, ip pretreated with isoproterenol for 3 days followed by compound addition and measured after 3 days by H and E staining based analysis; assay type: functional, organism-based; details: time 3.0 day
[18] = Metabolic stability in mouse liver microsomes assessed as parent compound remaining measured after 0.5 mins in absence of NADPH regenerating system by LC-MS/MS analysis; assay type: ADME, Microsome; details: read-out: Stability
H9c2 [19] = assay: Upregulation of cytochrome-c level in isoproterenol-induced rat H9c2 cells at 0.01 to 1 uM by Western blot analysis; assay type: functional, cell-based; details: dose 0.01-1 µM
[20] = Metabolic stability in mouse liver microsomes assessed as parent compound remaining measured after 15 mins in absence of NADPH regenerating system by LC-MS/MS analysis; assay type: ADME, Microsome; details: read-out: Stability
[21] = Metabolic stability in mouse liver microsomes assessed as parent compound remaining measured after 15 mins in presence of NADPH regenerating system by LC-MS/MS analysis; assay type: ADME, Microsome; details: read-out: Stability
Mus musculus [22] = assay: Cardioprotective activity against isoproterenol-induced myocardial injury in C57/6J mouse model assessed as decrease in pericardial thickness at 15 mg/kg, ip pretreated with isoproterenol for 3 days followed by compound addition and measured after 3 days by H and E staining based analysis; assay type: functional, organism-based; details: time 3.0 day
[23] = Dose normalized AUClast in male C57/6J mouse at 15 mg/kg, ip measured upto 24 hrs by LC-MS/MS analysis; assay type: ADME, organism-based; details: in vivo
Mus musculus [24] = assay: Cardioprotective activity against isoproterenol-induced myocardial injury in C57/6J mouse model assessed as effect on cTNI level in serum at 15 mg/kg, ip pretreated with isoproterenol for 3 days followed by compound addition and measured after 3 days by automatic biochemical analysis; assay type: functional, organism-based; details: time 3.0 day
Mus musculus [25] = assay: Cardioprotective activity against isoproterenol-induced myocardial injury in C57/6J mouse model assessed as reduction in CK value in serum at 15 mg/kg, ip pretreated with isoproterenol for 3 days followed by compound addition and measured after 3 days by automatic biochemical analysis; assay type: functional, organism-based; details: time 3.0 day
H9c2 [26] = assay: Induction of autophagy in isoproterenol-induced rat H9c2 cells assessed as increase in LC3-I to LC3-II conversion by confocal microscopy based analysis; assay type: functional, cell-based
[27] = Apparent volume of distribution during terminal phase in male C57/6J mouse at 15 mg/kg, ip measured upto 24 hrs by LC-MS/MS analysis; assay type: ADME, organism-based; details: in vivo, read-out: Vz/F
[28] = AUClast in male C57/6J mouse at 15 mg/kg, ip measured upto 24 hrs by LC-MS/MS analysis; assay type: ADME, organism-based; details: in vivo
[29] = Half life in male C57/6J mouse at 15 mg/kg, ip measured upto 24 hrs by LC-MS/MS analysis; assay type: ADME, organism-based; details: in vivo
H9c2 [30] = assay: Cytotoxicity against isoproterenol-induced rat H9c2 cells assessed as cell viability at 0.001 to 1 uM under normoxia condition by CCK-8 method; assay type: toxicity, cell-based; details: h9c2, 1 µM, dose 0.001-1 µM
[31] = Passive permeability in MDCK cells; assay type: ADME, cell-based, Canis lupus familiaris; details: dog, read-out: permeability
[32] = Drug uptake in lysosomes of rat H9c2 cells assessed as time required for compound concentration in lysosomes to exceed the cell lysates by HPLC analysis; assay type: ADME, subcellular, Lysosome
H9c2 [33] = assay: Upregulation of Ho-1 level in isoproterenol-induced rat H9c2 cells at 0.01 to 1 uM by Western blot analysis; assay type: functional, cell-based; details: dose 0.01-1 µM
Mus musculus [34] = assay: Cardioprotective activity against isoproterenol-induced myocardial injury in C57/6J mouse model assessed as reduction in pericardial thickness at 15 mg/kg, ip pretreated with isoproterenol for 3 days followed by compound addition and measured after 3 days by masson staining based analysis; assay type: functional, organism-based; details: time 3.0 day
[35] = Toxicity in isoproterenol-induced male C57/6J mouse model assessed as recovery of growth rate at 15 mg/kg, ip pretreated with isoproterenol for 3 days followed by compound addition and measured after 3 days; assay type: organism-based; details: in vivo, 72 h, time 3 day
H9c2 [36] = assay: Inhibition of ROS production in isoproterenol-induced rat H9c2 cells assessed as reduction in DCF value at 0.1 uM by DCFH-DA staining based flow cytometry analysis (reference value: 371.9); assay type: functional
Mus musculus [37] = assay: Cardioprotective activity against isoproterenol-induced myocardial injury in C57/6J mouse model assessed as reduction in cardiac swelling size at 15 mg/kg, ip pretreated with isoproterenol for 3 days followed by compound addition and measured after 3 days (reference value: 5.15 millimeter); assay type: functional; details: time 3 day
H9c2 [38] = assay: Induction of apoptosis in isoproterenol-induced rat H9c2 cells assessed as late apoptotic cells at 0.1 micromol/L by annexin V-FITC and PI staining based flow cytometry analysis (reference value: 11.49%); assay type: toxicity, cell-based; details: h9c2, 0.1 µM, dose 0.1 µmol/L
H9c2 [39] = assay: Induction of autophagy in isoproterenol-induced rat H9c2 cells transfected with GFP-tagged LC3 assessed as increase in number of green fluorescence by confocal microscopy analysis; assay type: functional, cell-based
[40] = Observed MRT(infinity) in male C57/6J mouse at 15 mg/kg, ip measured upto 24 hrs by LC-MS/MS analysis; assay type: ADME, organism-based; details: in vivo
H9c2 [41] = assay: Induction of autophagy in isoproterenol-induced rat H9c2 cells assessed as downregulation of P62 expression by Western blot analysis; assay type: functional, cell-based
Mus musculus [42] = assay: Cardioprotective activity against isoproterenol-induced myocardial injury in C57/6J mouse model assessed as decrease in CK-MB level in serum at 15 mg/kg, ip pretreated with isoproterenol for 3 days followed by compound addition and measured after 3 days by automatic biochemical analysis; assay type: functional, organism-based; details: time 3.0 day
[43] = Metabolic stability in mouse liver microsomes assessed as parent compound remaining measured after 60 mins in absence of NADPH regenerating system by LC-MS/MS analysis; assay type: ADME, Microsome; details: read-out: Stability
[44] = AUC infinity in male C57/6J mouse at 15 mg/kg, ip measured upto 24 hrs by LC-MS/MS analysis; assay type: ADME, organism-based; details: in vivo
[45] = Metabolic stability in mouse liver microsomes assessed as parent compound remaining measured after 30 mins in absence of NADPH regenerating system by LC-MS/MS analysis; assay type: ADME, Microsome; details: read-out: Stability
[46] = Metabolic stability in mouse liver microsomes assessed as parent compound remaining measured after 45 mins in presence of NADPH regenerating system by LC-MS/MS analysis; assay type: ADME, Microsome; details: read-out: Stability
[47] = Metabolic stability in mouse liver microsomes assessed as half life measured upto 60 mins in presence of NADPH regenerating system by LC-MS/MS analysis; assay type: ADME, Microsome
[48] = Apparent […] clearance in male C57/6J mouse at 15 mg/kg, ip measured upto 24 hrs by LC-MS/MS analysis; assay type: ADME, organism-based; details: in vivo
Mus musculus [49] = assay: Cardioprotective activity against isoproterenol-induced myocardial injury in C57/6J mouse model assessed as reduction in eosinophil count at 15 mg/kg, ip pretreated with isoproterenol for 3 days followed by compound addition and measured after 3 days; assay type: functional, organism-based; details: time 3.0 day
Mus musculus [50] = assay: Cardioprotective activity against isoproterenol-induced myocardial injury in C57/6J mouse model assessed as suppression of mTORC1 overexpression at 15 mg/kg, ip pretreated with isoproterenol for 3 days followed by compound addition and measured after 3 days by immunohistochemistry analysis; assay type: functional, organism-based; details: time 3.0 day
H9c2 [51] = assay: Induction of apoptosis in isoproterenol-induced rat H9c2 cells assessed as early apoptotic cells at 0.1 micromol/L by annexin V-FITC and PI staining based flow cytometry analysis (reference value: 10.37%); assay type: toxicity, cell-based; details: h9c2, 0.1 µM, dose 0.1 µmol/L
[52] = Metabolic stability in mouse liver microsomes assessed as parent compound remaining measured after 60 mins in presence of NADPH regenerating system by LC-MS/MS analysis; assay type: ADME, Microsome; details: read-out: Stability

## CCC(CC)O[C@@H]1C=C(C(=O)OCCN2CCOCC2)C[C@H](N)[C@H]1NC(C)=O
H9c2 [1]
  Activity: Dose-Dependent Effect
[2]
  remaining at 0.5 h: 83.9%
H9c2 [3]
  Activity: Non-Toxic
H9c2 [4]
  Activity: 48.9 nmol/mg
Mus musculus [5]
  Activity: Active
H9c2 [6]
  Activity: Active
Mus musculus [7]
  Activity: Active
[8]
  remaining at 0.75 h: 104%
[9]
  Tmax: 15 min
Mus musculus [10]
  Activity: Active
[11]
  microsomal CLint: 7.53 µL/min/mg
Mus musculus [12]
  Activity: 0.46%
Mus musculus [13]
  Activity: Active
[14]
  Cmax: 2380 ng/mL
[15]
  remaining at 0.5 min: 100%
[16]
  Papp: 44 ×10⁻⁶ cm/s
Mus musculus [17]
  Activity: Active
[18]
  remaining at 0.5 min: 100%
H9c2 [19]
  Activity: Active
[20]
  remaining at 0.25 h: 106%
[21]
  remaining at 0.25 h: 89.9%
Mus musculus [22]
  Activity: Active
[23]
  AUClast/dose: 139 kg·ng·h/mL/mg
Mus musculus [24]
  Activity: Active
Mus musculus [25]
  Activity: Active
H9c2 [26]
  Activity: Active
[27]
  Vd/F: 24 L/kg
[28]
  AUC(0-t) at 24 h: 2080 ng·h/mL
[29]
  half-life: 142 min
H9c2 [30]
  Activity: Non-Toxic
[31]
  Papp: > 20 ×10⁻⁶ cm/s
[32]
  Time: 3.43 min
H9c2 [33]
  Activity: Active
Mus musculus [34]
  Activity: Active
[35]
  Activity: Non-Toxic
H9c2 [36]
  Activity: 203.6
Mus musculus [37]
  Activity: 4.35 mm
H9c2 [38]
  Activity: 0.15%
H9c2 [39]
  Activity: Active
[40]
  MRT inf: 1.01 h
H9c2 [41]
  Activity: Active
Mus musculus [42]
  Activity: Active
[43]
  remaining at 1 h: 97.2%
[44]
  AUC(0-inf): 2100 ng·h/mL
[45]
  remaining at 0.5 h: 109%
[46]
  remaining at 0.75 h: 83%
[47]
  half-life: 184 min
[48]
  CL/F: 120 mL/min/kg
Mus musculus [49]
  Activity: Active
Mus musculus [50]
  Activity: Active
H9c2 [51]
  Activity: 6.07%
[52]
  remaining at 1 h: 77.2%
